Measured values published in article PMC7811517, “Human neuronal signaling and communication assays to assess functional neurotoxicity” (Archives of Toxicology, 2020).
Several values for one entry are separate records, joined by “and”; a condition that tells them apart may be missing. Equal entries are not always repeated. Entries after “also recorded” stand apart in the source; their conditions may differ. Where two headings read alike, the source gives them in different places.

How the values were obtained:
P2X receptors [1] = assay: Ca2+-imaging of LUHMES neurons, P2X receptor antagonists against ATP or α,β-meATP response; assay type: cell-based, human; conditions: for pIC50 on the response triggered by ATP: 1 µM ATP (~EC75)
Method: (§1) The signals of individual cells could not be captured. […] The total recording never exceeded 8 min.
(§2) (Ritz et al. [2015]). […].

LUHMES neurons [2] = assay type: cell-based, human
Method: as §1

[3] = target: dopamine transporter (DAT) (Homo sapiens, UniProt Q01959); assay type: cell-based
Chain of dopamine transporter (DAT) (Q01959 whole entry): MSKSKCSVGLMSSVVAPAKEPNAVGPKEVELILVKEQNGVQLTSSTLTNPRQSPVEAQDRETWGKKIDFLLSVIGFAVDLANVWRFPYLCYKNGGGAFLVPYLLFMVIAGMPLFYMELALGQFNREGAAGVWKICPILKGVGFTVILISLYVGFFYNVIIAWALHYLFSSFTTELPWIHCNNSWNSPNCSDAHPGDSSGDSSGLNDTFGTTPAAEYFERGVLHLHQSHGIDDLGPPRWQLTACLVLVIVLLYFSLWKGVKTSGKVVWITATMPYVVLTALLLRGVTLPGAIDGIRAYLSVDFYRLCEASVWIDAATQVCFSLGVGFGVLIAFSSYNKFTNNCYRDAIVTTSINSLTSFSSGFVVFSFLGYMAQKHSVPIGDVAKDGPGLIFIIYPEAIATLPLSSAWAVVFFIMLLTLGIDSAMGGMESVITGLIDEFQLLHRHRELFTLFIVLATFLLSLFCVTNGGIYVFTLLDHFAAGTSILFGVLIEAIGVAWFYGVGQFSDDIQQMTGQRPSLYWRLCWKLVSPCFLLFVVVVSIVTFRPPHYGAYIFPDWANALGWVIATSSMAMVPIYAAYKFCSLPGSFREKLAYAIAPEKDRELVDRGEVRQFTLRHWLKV
Method: LUHMES cells were differentiated for 6 days in a 24-well format and then treated with the indicated DAT inhibitors. […] After 10 min at 37 °C, the supernatant was removed and cells were washed with PBS. Then lysis buffer was added (PBS containing 0.2% Triton X-100). The amount of radioactive label taken up by the cells as well as the residual activity in the cell supernatant (plus washing buffer) was measured on a scintillation counter.

LUHMES neurons [4] = assay: Manual patch clamp recordings of LUHMES neurons; assay type: cell-based, human
Text: Manual patch clamp was executed with an EPC 10 USB patch clamp amplifier and PatchMaster Software (version 2 × 90.5; HEKA Elektronik, Lambrecht, Germany). […] Intracellular solution contained [mM]: 107 K-gluconate, 10 KCl, 1 MgCl2, 10 HEPES, 5 EGTA, 4 Na2ATP and 0.2 NaGTP, pH 7.20. Recordings were obtained at room temperature. The cells were kept at a holding potential of − 70 mV. In voltage clamp mode NaV and voltage-gated potassium (KV) channels were activated for 300 ms by voltage pulses ranging from − 70 to + 70 mV in + 10 mV steps after a hyperpolarizing step to − 120 mV for 200 ms. To investigate the firing behavior, cells were stimulated in current clamp mode by hyper- and depolarizing current pulses of 300 ms duration. The pulse protocol was executed at 0.2 Hz. For agonist tests in current clamp and voltage clamp mode, cells were kept at a holding potential of − 70 mV and the compounds were applied for 5 s.
The raw data of the manual patch clamp recordings were analyzed in scripts written in R. For leak subtraction, the P/4 algorithms of PatchMaster and QPatch Software were used in the voltage clamp recordings for manual and automated patch clamp experiments, respectively.

P2X receptors [5] = assay: Ca2+-imaging of LUHMES neurons, P2 receptor agonist responses; assay type: cell-based, human; conditions: for pEC50 in Ca2+-imaging: LUHMES neurons, agonist concentration-response
Method: as §1
(Ritz et al. [2015]). The logarithm of the half-maximal effective concentration (logEC50) between 0 and the upper limit (d), which was set to 1, is represented by ẽ, x denotes the concentration and b stands for the slope parameter (Ritz et al. [2015]).

NaV1.6 = conditions: ref McCormack et al. [2013]; cited from earlier work
NaV1.7 = conditions: ref McCormack et al. [2013]; cited from earlier work
NaV1.2 = conditions: ref McCormack et al. [2013]; cited from earlier work
NaV1.1 = conditions: ref McCormack et al. [2013]; cited from earlier work
NaV1.3 = conditions: ref McCormack et al. [2013]; cited from earlier work
NaV channels [6] = assay: Automated patch clamp recordings (QPatch) of NaV channel currents in LUHMES neurons; assay type: cell-based, human
rat hippocampal neurons = conditions: cited from earlier work
NaV channels [7] = assay: Ca2+-imaging of LUHMES neurons, NaV channel toxicants; assay type: cell-based, human
Method: as §1, §2

mice = conditions: mouse, in vivo; cited from earlier work
human P2X3 receptors = conditions: ref Garcia-Guzman et al. [1997]; cited from earlier work
[8] = 1 µM DA and 0.3 µM AMP, NNC 55–0396 30 µM

Compound: O=C(O)c1cc(C(=O)O)c(C(=O)N(Cc2cccc(Oc3ccccc3)c2)[C@H]2CCCc3ccccc32)cc1C(=O)O [A-317491]
- block of the response of ATP (P2X receptors [1]): up to 40%
- effect on ATP signals (P2X receptors [1]): only a weak partial effect
- effect on the response to α,β-meATP (P2X receptors [1]): potently and completely blocked
- pIC50 on the response triggered by α,β-meATP (P2X receptors [1]): 6.31 ± 0.05

Compound: CC(N)Cc1ccccc1 (centres unmarked) [AMP, amphetamine]
- main oscillation frequency (LUHMES neurons [2]; 1 µM DA (n = 6), 0.3 µM AMP (n = 10), FFT analysis): 0.234 ± 0.007 Hz and 0.2–0.23 Hz
- recordings with oscillations of the Ca2+-imaging signal (LUHMES neurons [2]; 1 µM DA (n = 125), 0.3 µM AMP (n = 50)): 94.0%
- effect on uptake of [3H]DA [3]: inhibited; also recorded: significantly reduced

Compound: Nc1ncnc2c1ncn2[C@@H]1O[C@H](COP(=O)(O)OP(=O)(O)OP(=O)(O)O)[C@@H](O)[C@H]1O [ATP, Adenosine 5'-triphosphate]
- response to agonist application (LUHMES neurons [4]; 100 µM ATP for 5 s, current clamp): triggered action potential firing
- pEC50 in Ca2+-imaging (P2X receptors [5]): 7.35 ± 0.08
- half-life of the fast decrease of the fluorescence signal (P2X receptors [5]; at 100 µM ATP): ~ 8 s

Compound: Nc1ncnc2c1ncn2[C@@H]1O[C@H](COP(=O)(O)OP(=O)(O)OP(=O)(O)O)[C@@H](OC(=O)c2ccc(C(=O)c3ccccc3)cc2)[C@H]1O [BzATP]
- pEC50 in Ca2+-imaging (P2X receptors [5]): 7.76 ± 0.11

Compound: NCCc1ccc(O)c(O)c1 [DA, dopamine]
- main oscillation frequency (LUHMES neurons [2]): 0.201 ± 0.002 Hz and 0.2–0.23 Hz
- recordings with oscillations of the Ca2+-imaging signal (LUHMES neurons [2]): 61.6% and 62%

Compound: O=C(Nc1ccc(S(=O)(=O)Nc2nccs2)cc1)C(c1ccccc1)c1ccccc1 [ICA-121431]
- IC50 (NaV1.6): 13000 nM
- IC50 (NaV1.7): 10000 nM
- IC50 (NaV1.2): 240 nM
- IC50 (NaV1.1): 23 nM
- IC50 (NaV1.3): 13 nM
- pIC50, NaV current with 50% of channels inactivated (NaV channels [6]; prepulse to −55 mV): 6.33 ± 0.10 and 6.3

Compound: CCN(CC)CC(=O)Nc1c(C)cccc1C [Lidocaine, lidocaine]
- pIC50 in rat hippocampal neurons (rat hippocampal neurons): ~ 3.4
- pIC50, NaV current, 1st pulse (NaV channels [6]): 3.03 ± 0.07
- pIC50, NaV current, 10th pulse (NaV channels [6]): 3.57 ± 0.06

Compound: CC(C)[C@H]1c2ccc(F)cc2CC[C@@]1(CCN(C)CCCc1nc2ccccc2[nH]1)OC(=O)C1CC1.Cl.Cl [NNC 55–0396, (1S,2S)-2-(2-(N-[(3-benzimidazol-2-yl)propyl]-N-methylamino)ethyl)-6-fluoro-1,2,3,4-tetrahydro-1-isopropyl-2-naphtyl cyclopropanecarboxylate dihydrochloride]
- signal amplitude compared to control, response to AMP (LUHMES neurons [2]): 2.1 ± 0.02%
- signal amplitude compared to control, response to DA (LUHMES neurons [2]): 3.0 ± 0.02%
- inhibition of amplitude, DA/AMP induced oscillations (LUHMES neurons [2]; [8]): > 95%
- signal amplitude compared to control, DA/AMP induced oscillations (LUHMES neurons [2]; [8]): 2–3%

Compound: Nc1ncnc2c1ncn2[C@@H]1O[C@H](COP(=O)(O)OP(=O)(O)OP(=O)(O)O)[C@H]2OC3(O[C@H]21)C([N+](=O)[O-])=CC(=[N+]([O-])[O-])C=C3[N+](=O)[O-] (some centres unmarked) [TNP-ATP, 2′,3′-O-(2,4,6-trinitrophenyl) adenosine 5′-triphosphate]
- pIC50 on the response triggered by α,β-meATP (P2X receptors [1]; 0.1 µM α,β-meATP (~EC75)): 7.5
- pIC50 on the response triggered by ATP (P2X receptors [1]): 6.1 and 6.05 ± 0.06

Compound: NC1=N[C@H](O)[C@H]2[C@H]3O[C@]4(O)O[C@@H]([C@@H](O)[C@@]2(N1)[C@@H]4O)[C@]3(O)CO [TTX, tetrodotoxin]
- effect on rapid transient inward currents (LUHMES neurons [4]): blocked
- pIC50 on the response triggered by VTD (NaV channels [7]): 7.9 and 7.93 ± 0.06
- pIC50, NaV current (pulse not specified) (NaV channels [6]): ~ 7.2
- pIC50, NaV current, 1st pulse (NaV channels [6]): 7.23 ± 0.05
- pIC50, NaV current, 10th pulse (NaV channels [6]): 7.26 ± 0.05
- signal amplitude compared to control, response to AMP (LUHMES neurons [2]): 21% and 20.5 ± 0.02%
- signal amplitude compared to control, response to DA (LUHMES neurons [2]): 69% and 68.6 ± 0.06%

Compound: COc1ccc(C(=O)O[C@H]2CC[C@@]3(C)[C@@H]4CC[C@H]5[C@]6(O)C[C@H](O)[C@@]7(O)[C@@H](CN8C[C@@H](C)CC[C@H]8[C@@]7(C)O)[C@]6(O)C[C@@]53O[C@]24O)cc1OC [VTD, veratridine]
- effect on action potential duration (LUHMES neurons [4]; 1 µM VTD, current clamp, n = 4): reversibly increased the action potential duration
- pEC50, rise of [Ca2+]i (NaV channels [7]; LUHMES neurons): 5.4 and 5.38 ± 0.03

Compound: COC(=O)[C@H]1[C@@H](OC(=O)c2ccccc2)C[C@@H]2CC[C@H]1N2C [cocaine]
- effect on uptake of [3H]DA [3]: inhibited; also recorded: significantly reduced

Compound: COC(=O)C1=C(C)NC(C)=C(C(=O)OC)C1c1ccccc1[N+](=O)[O-] [nifedipine]
- signal amplitude compared to control, response to AMP (LUHMES neurons [2]): 51% and 51.4 ± 0.03%
- signal amplitude compared to control, response to DA (LUHMES neurons [2]): 70% and 70.2 ± 0.05%

Compound: CN1Cc2c(N)cccc2C(c2ccccc2)C1 (centres unmarked) [nomifensine]
- effect on oscillations induced by AMP and DA (LUHMES neurons [2]): blocked

Compound: C[C@@H]1C[C@@H]2O[C@@H]3[C@@H](C)[C@H](O)[C@@H]4O[C@@]5(CCCO5)[C@@H](C)[C@H](C)[C@H]4O[C@H]3C[C@H]2O[C@H]2C[C@H]3O[C@H]4C/C=C\C[C@H]5O[C@H]6C=C[C@H]7O[C@H]8[C@H](O)[C@H]9O[C@@H](/C=C/[C@H](O)CO)C=CC[C@@H]9O[C@@H]8C[C@@H]7O[C@@H]6C=C[C@@H]5O[C@@H]4C[C@@H](O)[C@]3(C)O[C@@H]2C1 [pCTX-2, pacific ciguatoxin-2]
- acute toxicity (mice) (mice): 2.3 µg/kg
- amplitude of the evoked response (NaV channels [7]): 1779 ± 50 AU
- effect compared to control (NaV channels [7]): no effect
- effect on [Ca2+]i / Ca2+-imaging signal (NaV channels [7]): induced an increase of the baseline and oscillations; also recorded: increased [Ca^2+]i
- effect on the amplitude induced by 3 µM VTD (NaV channels [7]): significantly reduced

Compound: Cc1ccc(C(=O)Nc2ccc(S(=O)(=O)O)c3cc(S(=O)(=O)O)cc(S(=O)(=O)O)c23)cc1NC(=O)c1cccc(NC(=O)Nc2cccc(C(=O)Nc3cc(C(=O)Nc4ccc(S(=O)(=O)O)c5cc(S(=O)(=O)O)cc(S(=O)(=O)O)c45)ccc3C)c2)c1 [suramin]
- pIC50 for human P2X3 receptors (human P2X3 receptors): approximately 4.8
- pIC50 on the response triggered by α,β-meATP (P2X receptors [1]; 0.1 µM α,β-meATP (~EC75)): 4.51 ± 0.03 and 4.5
- pIC50 on the response triggered by ATP (P2X receptors [1]): 4.09 ± 0.03 and 4.1

Compound: Nc1ncnc2c1ncn2[C@@H]1O[C@H](COP(=O)(O)CP(=O)(O)OP(=O)(O)O)[C@@H](O)[C@H]1O [α,β-meATP]
- pEC50 in Ca2+-imaging (P2X receptors [5]): 7.52 ± 0.03 and 7.5
- pEC50, amplitude normalized to K+ amplitude (P2X receptors [5]; normalized to 30 mM K+ application, 5 differentiations): 7.58 ± 0.04

Compound: microcystin-LF
- effect alone in Ca2+-imaging (NaV channels [7]): no significate effect; also recorded: did not show any effects
- effect on the response to 3 µM VTD (NaV channels [7]): no significate effect; also recorded: did not show any effects
